Test results reported in patent US12465050B2, “Compositions comprising a pyridine carboxylate herbicide and protoporphyrinogen oxidase (protox) inhibitor herbicides” (priority 2018, dated 2025).

What was measured:
Type in all cases: in vivo
[1] = tested on: Viola arvensis (field violet); test: Greenhouse postemergence herbicidal effect on VIOAR
Excerpt: (§1) Greenhouse Trial Methodology—Evaluation of Postemergence Herbicidal Effect
(§2) Seeds of the desired test plant species were planted in a 90:10% v/v (volume/volume) mixture of PRO-MIX® BX (Premier Tech Horticulture, Quakertown, Pa., USA) and PROFILE® GREENS GRADE™ (Profile Products LLC, Buffalo Grove, Ill., USA) planting mixture, which typically has a pH of 5.2 to 6.2 and an organic matter content of at least 50 percent, in plastic pots with a surface area of 103.2 square centimeters (cm^2). In some aspects or embodiments, to help ensure good germination and healthy plants, a fungicide treatment and/or other chemical or physical treatment was applied. The plants were grown for 7-36 days (d) in a greenhouse with an approximate 14-hour (h) photoperiod which was maintained at about 23° C. during the day and 22° C. during the night. Nutrients and water were added on a regular basis and supplemental lighting was provided with overhead metal halide 1000-Watt lamps as necessary. The plants were employed for testing when they reached the second or third true leaf stage.
(§3) Emulsifiable concentrates of each of each pyridine carboxylate herbicide (Compound A or Compound B) were prepared at 100 grams acid equivalent per liter (g ae/L). The emulsifiable concentrates also included a safener, cloquintocet mexyl, at 120 grams active ingredient per liter (g ai/L). An aliquot of each emulsifiable concentrate was placed in a 25 mL glass vial and diluted with an aqueous mixture of 1.25% (v/v) ACTIROB® B esterified rapeseed oil (Bayer Crop Science, Research Triangle Park, N.C., USA) or MSO® Concentrate with LECI-TECH® methylated soybean oil (Loveland Products, Loveland, Colo., USA) to obtain concentrated stock solutions at the highest application rate for each herbicide, based upon a 12 milliliter (mL) application volume at a rate of 187 liters per hectare (L/ha). The concentrated stock solutions were further diluted with an aqueous mixture of 1.25% v/v ACTIROB® B or MSO® Concentrate with LECI-TECH® to obtain stock solutions at reduced application rates for each herbicide. Spray solutions of the herbicide combinations (Compound A or Compound B plus PROTOX inhibitor herbicide) were prepared by adding weighed amounts or aliquots of the PROTOX inhibitor herbicides to the stock solutions of Compound A or Compound B to form 12-mL spray solutions in two-way combinations. […]
(§4) The treated plants and control plants were placed in a greenhouse as described above and watered by sub-irrigation to prevent wash-off of the test compounds. After 20-22 d, the condition of the test plants as compared with that of the control plants was determined visually and scored on a scale of 0 to 100 percent where 0 corresponds to no injury and 100 corresponds to complete kill.

[2] = tested on: Salsola kali (Russian thistle); test: Greenhouse postemergence herbicidal effect on SASKR
Excerpt: as §1, §2
(§5) Emulsifiable concentrates of each of each pyridine carboxylate herbicide (Compound A or Compound B) were prepared at 100 grams acid equivalent per liter (g ae/L). The emulsifiable concentrates also included a safener, cloquintocet mexyl, at 120 grams active ingredient per liter (g ai/L). An aliquot of each emulsifiable concentrate was placed in a 25 mL glass vial and diluted with an aqueous mixture of 1.25% (v/v) ACTIROB® B esterified rapeseed oil (Bayer Crop Science, Research Triangle Park, N.C., USA) or MSO® Concentrate with LECI-TECH® methylated soybean oil (Loveland Products, Loveland, Colo., USA) to obtain concentrated stock solutions at the highest application rate for each herbicide, based upon a 12 milliliter (mL) application volume at a rate of 187 liters per hectare (L/ha). The concentrated stock solutions were further diluted with an aqueous mixture of 1.25% v/v ACTIROB® B or MSO® Concentrate with LECI-TECH® to obtain stock solutions at reduced application rates for each herbicide. Spray solutions of the herbicide combinations (Compound A or Compound B plus PROTOX inhibitor herbicide) were prepared by adding weighed amounts or aliquots of the PROTOX inhibitor herbicides to the stock solutions of Compound A or Compound B to form 12-mL spray solutions in two-way combinations.
(§6) The spray solutions were applied to the plant material with an overhead Mandel track sprayer equipped with 8002E nozzles calibrated to deliver 187 L/ha over an application area of 0.503 square meters (m^2) at a spray height of 18 inches (43 centimeters (cm)) above the average plant canopy. Control plants were sprayed in the same manner with the solvent blank. All pyridine carboxylate herbicide (component a) application rates are given as “g ae/ha” and all PROTOX inhibitor herbicide (component b) application rates are given as “g ai/ha.”
as §4

[3] = tested on: Echinochloa crus-galli (barnyard grass); test: Greenhouse postemergence herbicidal effect on ECHCG
Excerpt: as §1, §2
(§7) Emulsifiable concentrates of each of each pyridine carboxylate herbicide (Compound A or Compound B) were prepared at 100 grams acid equivalent per liter (g ae/L). The emulsifiable concentrates also included a safener, cloquintocet mexyl, at 120 grams active ingredient per liter (g ai/L). […]
as §4

[4] = tested on: Cirsium arvense (Canadian thistle); test: Greenhouse postemergence herbicidal effect on CIRAR
Excerpt: as §1, §2, §5, §6, §4

[5] = tested on: Setaria faberi (giant foxtail); test: Greenhouse postemergence herbicidal effect on SETFA
Excerpt: as §1, §2, §5, §6, §4

[6] = tested on: Veronica hederifolia (ivy-leaved speedwell); test: Greenhouse postemergence herbicidal effect on VERHE
Excerpt: as §1, §2, §3, §4

[7] = tested on: Papaver rhoeas (common poppy); test: Greenhouse postemergence herbicidal effect on PAPRH
Excerpt: as §1, §2, §3, §4

[8] = tested on: Rumex obtusifolius (broad-leaf dock); test: Greenhouse postemergence herbicidal effect on RUMOB
Excerpt: as §1, §2, §5, §6, §4

[9] = tested on: Matricaria chamomilla (wild chamomile); test: Greenhouse postemergence herbicidal effect on MATCH
Excerpt: as §1, §2, §5, §6, §4

[10] = tested on: Triticum aestivum (winter wheat); test: Greenhouse postemergence phytotoxicity on crop TRZAW
Excerpt: as §1, §2, §3, §4

[11] = tested on: Cyperus esculentus (nutsedge); test: Greenhouse postemergence herbicidal effect on CYPES
Excerpt: as §1, §2, §7, §4

[12] = tested on: Polygonum convolvulus (wild buckwheat); test: Greenhouse postemergence herbicidal effect on POLCO
Excerpt: as §1, §2, §5, §6, §4

[13] = tested on: Digitaria sanguinalis (large crabgrass); test: Greenhouse postemergence herbicidal effect on DIGSA
Excerpt: as §1, §2, §7, §4

[14] = tested on: Lamium purpureum (purple deadnettle); test: Greenhouse postemergence herbicidal effect on LAMPU
Excerpt: as §1, §2, §3, §4

[15] = tested on: Anthemis arvensis (corn chamomile); test: Greenhouse postemergence herbicidal effect on ANTAR
Excerpt: as §1, §2, §3, §4

[16] = Compound A 7.5, Oxyfluorfen 0 g/ha
[17] = Compound A 10, Oxyfluorfen 0 g/ha
[18] = Compound A 15, Oxyfluorfen 0 g/ha
[19] = Compound A 7.5, Carfentrazone-ethyl 0 g/ha
[20] = Compound A 7.5, Pyraclonil 0 g/ha
[21] = Compound A 7.5, Pyraflufen-ethyl 0 g/ha
[22] = Compound A 10, Carfentrazone-ethyl 0 g/ha
[23] = Compound A 10, Pyraclonil 0 g/ha
[24] = Compound A 10, Pyraflufen-ethyl 0 g/ha
[25] = Compound A 7.5, Saflufenacil 0 g/ha
[26] = Compound A 10, Saflufenacil 0 g/ha

## N#CCOC(=O)c1nc(-c2ccc3cc[nH]c3c2F)c(F)c(N)c1Cl [Compound A, cyanomethyl 4-amino-3-chloro-5-fluoro-6-(7-fluoro-1H-indol-6-yl)pyridine-2-carboxylate]
[1]; [16]
  % visual injury, Obs: 10%
[1]; [17]
  % visual injury, Obs: 13%
[1]; [18]
  % visual injury, Obs: 10%
[2]; [19]
  % visual injury, Obs: 45%
[2]; [16]
  % visual injury, Obs: 50%
[2]; [20]
  % visual injury, Obs: 45%
[2]; [21]
  % visual injury, Obs: 60%
[2]; [22]
  % visual injury, Obs: 60%
[2]; [17]
  % visual injury, Obs: 60%
[2]; [23]
  % visual injury, Obs: 60%
[2]; [24]
  % visual injury, Obs: 63%
[2]; [18]
  % visual injury, Obs: 63%
[3]; Compound A 7.5, Bifenox 0 g/ha
  % visual injury, Obs: 80%
[3]; Compound A 10, Bifenox 0 g/ha
  % visual injury, Obs: 88%
[4]; Compound A 7.5, Bifenox 0 g/ha
  % visual injury, Obs: 70%
[4]; [16]
  % visual injury, Obs: 50%
[4]; [21]
  % visual injury, Obs: 40%
[4]; Compound A 10, Bifenox 0 g/ha
  % visual injury, Obs: 68%
[4]; [17]
  % visual injury, Obs: 63%
[4]; [24]
  % visual injury, Obs: 55%
[4]; [18]
  % visual injury, Obs: 63%
[5]; Compound A 7.5, Bifenox 0 g/ha
  % visual injury, Obs: 60%
[5]; [25]
  % visual injury, Obs: 78%
[5]; Compound A 10, Bifenox 0 g/ha
  % visual injury, Obs: 78%
[5]; [26]
  % visual injury, Obs: 80%
[6]; [16]
  % visual injury, Obs: 68%
[6]; [17]
  % visual injury, Obs: 73%
[6]; [18]
  % visual injury, Obs: 75%
[7]; [16]
  % visual injury, Obs: 100%
[7]; [17]
  % visual injury, Obs: 99%
[7]; [18]
  % visual injury, Obs: 100%
[8]; Compound A 7.5, Bifenox 0 g/ha
  % visual injury, Obs: 13%
[8]; [25]
  % visual injury, Obs: 20%
[8]; Compound A 10, Bifenox 0 g/ha
  % visual injury, Obs: 8%
[8]; [26]
  % visual injury, Obs: 13%
[9]; [16]
  % visual injury, Obs: 23%
[9]; [21]
  % visual injury, Obs: 10%
[9]; [17]
  % visual injury, Obs: 35%
[9]; [24]
  % visual injury, Obs: 20%
[9]; [18]
  % visual injury, Obs: 45%
[10]; [16]
  % visual injury, Obs: 0%
[10]; [17]
  % visual injury, Obs: 0%
[10]; [18]
  % visual injury, Obs: 0%
[11]; [25]
  % visual injury, Obs: 30%
[11]; [26]
  % visual injury, Obs: 8%
[12]; [19]
  % visual injury, Obs: 70%
[12]; [16]
  % visual injury, Obs: 65%
[12]; [20]
  % visual injury, Obs: 70%
[12]; [21]
  % visual injury, Obs: 30%
[12]; [22]
  % visual injury, Obs: 78%
[12]; [17]
  % visual injury, Obs: 78%
[12]; [23]
  % visual injury, Obs: 78%
[12]; [24]
  % visual injury, Obs: 43%
[12]; [18]
  % visual injury, Obs: 85%
[13]; Compound A 7.5, Bifenox 0 g/ha
  % visual injury, Obs: 13%
[13]; Compound A 10, Bifenox 0 g/ha
  % visual injury, Obs: 25%
[14]; [16]
  % visual injury, Obs: 68%
[14]; [17]
  % visual injury, Obs: 73%
[14]; [18]
  % visual injury, Obs: 73%
[15]; [16]
  % visual injury, Obs: 68%
[15]; [17]
  % visual injury, Obs: 70%
[15]; [18]
  % visual injury, Obs: 88%
